In patent US9113629B2, “4-amino-6-(4-substituted-phenyl)-picolinates and 6-amino-2-(4-substituted-phenyl)-pyrimidine-4-carboxylates and their use as herbicides” (DOW AGROSCIENCES LLC, priority 2013, dated 2015):
Like-named read-outs stand apart in the source and are kept apart here.

Columns and labels:
[1] = tested on: Key Broadleaf Weed and Crop Species; test: Post-emergent Test II herbicidal activity (Table 5); assay type: in vivo; conditions: post-emergence, 336 h, 14 days after application; for pest or weed control at 70 g/ha: application rate 70 g ai/ha; for pest or weed control at 140 g/ha: application rate 140 g ai/ha
How it was run: (§1)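 Post-emergence foliar spray, 187 L/ha, track sprayer at 43 cm above canopy. Carrier: acetone/water/IPA/DMSO/Atplus 411F/Triton X-155. Plants at 1st–2nd true leaf; subirrigated afterwards; % injury scored visually at 14 d.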

[2] = tested on: Key Grass and Sedge Weeds as well as Grass Crops; test: Post-emergent Test II herbicidal activity (Table 6); assay type: in vivo; conditions: post-emergence, 336 h; for pest or weed control at 70 g/ha: 70 g ai/ha; for pest or weed control at 140 g/ha: 140 g ai/ha
How it was run: as §1

[3] = ABUTH: velvetleaf (Abutilon theophrasti), read-out: Visual Growth Reduction (%) 14 Days After Application, ABUTH
[4] = AMARE: redroot pigweed (Amaranthus retroflexus), read-out: Visual Growth Reduction (%) 14 Days After Application, AMARE
[5] = BRSNN: oilseed-rape, canola (Brassica napus), read-out: Visual Growth Reduction (%) 14 Days After Application, BRSNN
[6] = CHEAL: lambsquarters (Chenopodium album), read-out: Visual Growth Reduction (%) 14 Days After Application, CHEAL
[7] = EPHHL: wild poinsettia (Euphorbia heterophylla), read-out: Visual Growth Reduction (%) 14 Days After Application, EPHHL
[8] = HELAN: sunflower (Helianthus annuus), read-out: Visual Growth Reduction (%) 14 Days After Application, HELAN
[9] = VIOTR: wild pansy (Viola tricolor), read-out: Visual Growth Reduction (%) 14 Days After Application, VIOTR
[10] = CYPES: yellow nutsedge (Cyperus esculentus), read-out: Visual Growth Reduction (%) 14 Days After Application, CYPES
[11] = DIGSA: crabgrass (Digitaria sanguinalis), read-out: Visual Growth Reduction (%) 14 Days After Application, DIGSA
[12] = ECHCG: barnyardgrass (Echinochloa crus-galli), read-out: Visual Growth Reduction (%) 14 Days After Application, ECHCG
[13] = ORYSA: rice (Oryza sativa), crop, read-out: Visual Growth Reduction (%) 14 Days After Application, ORYSA
[14] = SETFA: giant foxtail (Setaria faberi), read-out: Visual Growth Reduction (%) 14 Days After Application, SETFA
[15] = SORVU: grain sorghum (Sorghum vulgare), read-out: Visual Growth Reduction (%) 14 Days After Application, SORVU
[16] = TRZSS (wheat, Triticum aestivum), crop, read-out: Visual Growth Reduction (%) 14 Days After Application, TRZSS
[17] = ZEAMX: maize, corn (Zea mays), crop, read-out: Visual Growth Reduction (%) 14 Days After Application, ZEAMX

| melting point | Structure (SMILES) | pest or weed control at 70 g/ha [1, 3] [%] | pest or weed control at 140 g/ha [1, 3] [%] | pest or weed control at 70 g/ha [1, 4] [%] | pest or weed control at 140 g/ha [1, 4] [%] | pest or weed control at 70 g/ha [1, 5] [%] | pest or weed control at 140 g/ha [1, 5] [%] | pest or weed control at 70 g/ha [1, 6] [%] | pest or weed control at 140 g/ha [1, 6] [%] | pest or weed control at 70 g/ha [1, 7] [%] | pest or weed control at 140 g/ha [1, 7] [%] | pest or weed control at 70 g/ha [1, 8] [%] | pest or weed control at 140 g/ha [1, 8] [%] | pest or weed control at 70 g/ha [1, 9] [%] | pest or weed control at 140 g/ha [1, 9] [%] | pest or weed control at 70 g/ha [2, 10] [%] | pest or weed control at 140 g/ha [2, 10] [%] | pest or weed control at 70 g/ha [2, 11] [%] | pest or weed control at 140 g/ha [2, 11] [%] | pest or weed control at 70 g/ha [2, 12] [%] | other results |
| --- | --- | --- | --- | --- | --- | --- | --- | --- | --- | --- | --- | --- | --- | --- | --- | --- | --- | --- | --- | --- | --- |
| 155 to 165 °C (dec.) | C#Cc1ccc(-c2nc(N)c(OC)c(C(=O)O)n2)c(F)c1 [Compound 41] | 0 to 29 | 0 to 29 | 0 to 29 | 0 to 29 | 0 to 29 | 45 to 59 | 0 to 29 | 60 to 74 | 0 to 29 | 0 to 29 | 60 to 74 | 75 to 84 | 0 to 29 | 0 to 29 | 0 to 29 | 0 to 29 | 0 to 29 | 0 to 29 | 0 to 29 | pest or weed control at 140 g/ha [2, 12]: 0 to 29%; pest or weed control at 70 g/ha [2, 13]: 0 to 29%; pest or weed control at 140 g/ha [2, 13]: 0 to 29%; pest or weed control at 70 g/ha [2, 14]: 0 to 29%; pest or weed control at 140 g/ha [2, 14]: 0 to 29%; pest or weed control at 70 g/ha [2, 15]: 0 to 29%; pest or weed control at 140 g/ha [2, 15]: 0 to 29%; pest or weed control at 70 g/ha [2, 16]: 0 to 29%; pest or weed control at 140 g/ha [2, 16]: 0 to 29%; pest or weed control at 70 g/ha [2, 17]: 0 to 29%; pest or weed control at 140 g/ha [2, 17]: 0 to 29% |
| 127 to 129 °C | COC(=O)c1nc(-c2ccc(OC(F)F)cc2F)c(F)c(N)c1Cl [Compound 104] | 45 to 59 | 45 to 59 | 0 to 29 | 0 to 29 | 0 to 29 | 0 to 29 | 0 to 29 | 0 to 29 | 75 to 84 | 85 to 94 | 75 to 84 | 75 to 84 | 0 to 29 | 0 to 29 | 0 to 29 | 45 to 59 | 0 to 29 | 0 to 29 | 0 to 29 | pest or weed control at 140 g/ha [2, 12]: 0 to 29%; pest or weed control at 70 g/ha [2, 13]: 0 to 29%; pest or weed control at 140 g/ha [2, 13]: 0 to 29%; pest or weed control at 70 g/ha [2, 14]: 0 to 29%; pest or weed control at 140 g/ha [2, 14]: 0 to 29%; pest or weed control at 70 g/ha [2, 15]: 0 to 29%; pest or weed control at 140 g/ha [2, 15]: 45 to 59%; pest or weed control at 70 g/ha [2, 16]: 0 to 29%; pest or weed control at 140 g/ha [2, 16]: 0 to 29%; pest or weed control at 70 g/ha [2, 17]: 45 to 59%; pest or weed control at 140 g/ha [2, 17]: 95 to 100% |
| 159 to 162 °C | COC(=O)c1nc(-c2ccc(I)cc2F)nc(N)c1OC [Compound 82] | 95 to 100 | 95 to 100 | 95 to 100 | 95 to 100 | 85 to 94 | 85 to 94 | 85 to 94 | 95 to 100 | 95 to 100 | 95 to 100 | 95 to 100 | 95 to 100 | 60 to 74 | 75 to 84 | 95 to 100 | 95 to 100 | 0 to 29 | 0 to 29 | 45 to 59 | pest or weed control at 140 g/ha [2, 12]: 85 to 94%; pest or weed control at 70 g/ha [2, 13]: 0 to 29%; pest or weed control at 140 g/ha [2, 13]: 0 to 29%; pest or weed control at 70 g/ha [2, 14]: 0 to 29%; pest or weed control at 140 g/ha [2, 14]: 0 to 29%; pest or weed control at 70 g/ha [2, 15]: 0 to 29%; pest or weed control at 140 g/ha [2, 15]: 45 to 59%; pest or weed control at 70 g/ha [2, 16]: 30 to 44%; pest or weed control at 140 g/ha [2, 16]: 30 to 44%; pest or weed control at 70 g/ha [2, 17]: 95 to 100%; pest or weed control at 140 g/ha [2, 17]: 95 to 100% |
